Data from PubChem BioAssay AID1918945 (Molecular Pharmacology Branch, DTP, NCI, 2023).
Several values for one entry are separate records, joined by “and”; a condition that tells them apart may be missing. Identical values can stand only once.

Tested on: 883617-216-R-J1-PDC complex spheroid viability
Assay: Anticancer human tumor 883617-216-R-J1-PDC patient-derived bladder carcinoma cell line growth inhibition
Settings: for viability, T/C: stronger effect = lower value
How it was run: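 Multicellular complex spheroids of tumor cells with human endothelial cells (HUVEC) and mesenchymal stem cells; the LSD1 inhibitor iadademstat was combined with standard-of-care or investigational agents. Top concentration at or near clinical Cmax, half-log dilutions; final DMSO ≤0.25%.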

[1] = curve of first compound, second compound 0.1 µM
[2] = curve of first compound, second compound 0.316 µM
[3] = curve of first compound, second compound 1 µM
[4] = curve of first compound, second compound 3.16 µM
[5] = curve of first compound, second compound 10 µM
[6] = second compound 0.1 µM, first compound 0.0316 µM
[7] = second compound 0.1 µM, first compound 0.1 µM
[8] = second compound 0.1 µM, first compound 0.316 µM
[9] = second compound 0.1 µM, first compound 1 µM
[10] = second compound 0.316 µM, first compound 0.0316 µM
[11] = second compound 0.316 µM, first compound 0.1 µM
[12] = second compound 0.316 µM, first compound 0.316 µM
[13] = second compound 0.316 µM, first compound 1 µM
[14] = second compound 1 µM, first compound 0.0316 µM
[15] = second compound 1 µM, first compound 0.1 µM
[16] = second compound 1 µM, first compound 0.316 µM
[17] = second compound 1 µM, first compound 1 µM
[18] = second compound 3.16 µM, first compound 0.0316 µM
[19] = second compound 3.16 µM, first compound 0.1 µM
[20] = second compound 3.16 µM, first compound 0.316 µM
[21] = second compound 3.16 µM, first compound 1 µM
[22] = second compound 10 µM, first compound 0.0316 µM
[23] = second compound 10 µM, first compound 0.1 µM
[24] = second compound 10 µM, first compound 0.316 µM
[25] = second compound 10 µM, first compound 1 µM
[26] = second compound 0.1 µM, first compound 0.00316 µM
[27] = second compound 0.1 µM, first compound 0.01 µM
[28] = second compound 0.316 µM, first compound 0.00316 µM
[29] = second compound 0.316 µM, first compound 0.01 µM
[30] = second compound 1 µM, first compound 0.00316 µM
[31] = second compound 1 µM, first compound 0.01 µM
[32] = second compound 3.16 µM, first compound 0.00316 µM
[33] = second compound 3.16 µM, first compound 0.01 µM
[34] = second compound 10 µM, first compound 0.00316 µM
[35] = second compound 10 µM, first compound 0.01 µM
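Further: exposure lasted seven days after three days of spheroid growth.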
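Wherever viability, T/C is given: 100% = DMSO vehicle control luminescence.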

COc1ccc([C@@H](O)c2cc(-c3ncnc4cc(N5CCOCC5)ccc34)c(F)cc2Cl)nn1 + NC1CC1c1ccc(-c2cccc(O)c2)cc1
IC50 [1]: 877 nM
IC50 [2]: 1030 nM
IC50 [3]: 902 nM
IC50 [4]: 712 nM
IC50 [5]: 304 nM
viability, T/C [6]: 111%
viability, T/C [7]: 102%
viability, T/C [8]: 71.5%
viability, T/C [9]: 46.1%
viability, T/C (second compound 0.1 µM, first compound 3.16 µM): 30.6%
viability, T/C (second compound 0.1 µM, first compound 10 µM): 15.1%
viability, T/C [10]: 109%
viability, T/C [11]: 93.3%
viability, T/C [12]: 74.4%
viability, T/C [13]: 48.8%
viability, T/C (second compound 0.316 µM, first compound 3.16 µM): 31.5%
viability, T/C (second compound 0.316 µM, first compound 10 µM): 15.3%
viability, T/C [14]: 113%
viability, T/C [15]: 98.3%
viability, T/C [16]: 75%
viability, T/C [17]: 43.8%
viability, T/C (second compound 1 µM, first compound 3.16 µM): 32.7%
viability, T/C (second compound 1 µM, first compound 10 µM): 15.2%
viability, T/C [18]: 116%
viability, T/C [19]: 93.8%
viability, T/C [20]: 58.2%
viability, T/C [21]: 47.2%
viability, T/C (second compound 3.16 µM, first compound 3.16 µM): 27%
viability, T/C (second compound 3.16 µM, first compound 10 µM): 14.3%
viability, T/C [22]: 88%
viability, T/C [23]: 71.9%
viability, T/C [24]: 42.1%
viability, T/C [25]: 39%
viability, T/C (second compound 10 µM, first compound 3.16 µM): 21.8%
viability, T/C (second compound 10 µM, first compound 10 µM): 12.4%

O=C(C=Cn1cnc(-c2cc(C(F)(F)F)cc(C(F)(F)F)c2)n1)NNc1cnccn1
viability, T/C (compound 0.00316 µM): 87.2% and 64.4%
viability, T/C (compound 0.01 µM): 56.7% and 27.2%
viability, T/C (compound 0.0316 µM): 35.6% and 23.6%
viability, T/C (compound 0.1 µM): 31.5% and 16.4%
viability, T/C (compound 0.316 µM): 28.4% and 14.6%
viability, T/C (compound 1 µM): 23.4% and 14.3%
IC50 (curve of compound): 14.6 nM and 5.02 nM

CC(C)CC(NC(=O)C(Cc1ccccc1)NC(=O)c1cnccn1)B(O)O (configuration not stated) + NC1CC1c1ccc(-c2cccc(O)c2)cc1
IC50 [1]: 0.874 nM
IC50 [2]: 0.885 nM
IC50 [3]: 0.949 nM
IC50 [4]: 0.798 nM
IC50 [5]: 0.581 nM
viability, T/C (second compound 0.1 µM, first compound 0.000316 µM): 104%
viability, T/C (second compound 0.1 µM, first compound 0.001 µM): 42.8%
viability, T/C [26]: 0.61%
viability, T/C [27]: 0.03%
viability, T/C [6]: 0.03%
viability, T/C [7]: 0.12%
viability, T/C (second compound 0.316 µM, first compound 0.000316 µM): 108%
viability, T/C (second compound 0.316 µM, first compound 0.001 µM): 43.1%
viability, T/C [28]: 0.43%
viability, T/C [29]: 0.02%
viability, T/C [10]: 0.02%
viability, T/C [11]: 0.12%
viability, T/C (second compound 1 µM, first compound 0.000316 µM): 124%
viability, T/C (second compound 1 µM, first compound 0.001 µM): 46.5%
viability, T/C [30]: 0.86%
viability, T/C [31]: 0.02%
viability, T/C [14]: 0.02%
viability, T/C [15]: 0.56%
viability, T/C (second compound 3.16 µM, first compound 0.000316 µM): 108%
viability, T/C (second compound 3.16 µM, first compound 0.001 µM): 35.9%
viability, T/C [32]: 1.57%
viability, T/C [33]: 0.04%
viability, T/C [18]: 0.04%
viability, T/C [19]: 0.3%
viability, T/C (second compound 10 µM, first compound 0.000316 µM): 82.5%
viability, T/C (second compound 10 µM, first compound 0.001 µM): 21%
viability, T/C [34]: 0.27%
viability, T/C [35]: 0.21%
viability, T/C [22]: 0.61%
viability, T/C [23]: 0.22%

CC1COCCN1c1cc(-c2ccnn2C)c2ccnc(-c3ccn[nH]3)c2n1 (configuration not stated) + NC1CC1c1ccc(-c2cccc(O)c2)cc1
IC50 [1]: 7.65 nM
IC50 [2]: 8.14 nM
IC50 [3]: 8.58 nM
IC50 [4]: 4.73 nM
IC50 [5]: 3.73 nM
viability, T/C [26]: 56.5%
viability, T/C [27]: 49.9%
viability, T/C [6]: 37.2%
viability, T/C [7]: 29.1%
viability, T/C [8]: 24.6%
viability, T/C [9]: 18.8%
viability, T/C [28]: 63.4%
viability, T/C [29]: 45.9%
viability, T/C [10]: 35.3%
viability, T/C [11]: 32.7%
viability, T/C [12]: 26%
viability, T/C [13]: 21%
viability, T/C [30]: 60.1%
viability, T/C [31]: 49.8%
viability, T/C [14]: 32.8%
viability, T/C [15]: 29.1%
viability, T/C [16]: 23.1%
viability, T/C [17]: 20.4%
viability, T/C [32]: 56.6%
viability, T/C [33]: 37.8%
viability, T/C [18]: 30.3%
viability, T/C [19]: 26.6%
viability, T/C [20]: 23.2%
viability, T/C [21]: 19.4%
viability, T/C [34]: 51.2%
viability, T/C [35]: 41.9%
viability, T/C [22]: 27.6%
viability, T/C [23]: 25%
viability, T/C [24]: 22.6%
viability, T/C [25]: 19.7%
